US20170216295A1, “CCR9 ANTAGONIST COMPOUNDS” (Merck Sharp & Dohme Corp., priority 2014, published 2017)
Converted amounts (≈) assume the structure as drawn. Where two headings read alike, the source gives them in different places.

Legend:
[1] = pH-solubility (high-throughput, buffers); type: physicochemical; conditions: aqueous with cosolvent or surfactant or cyclodextrin, kinetic from dmso stock
Description: Solubility of representative acidic triazoles was measured in 3 buffer systems (pH 4, 7.4 and 9) using an in-house high-throughput solubility method. A stock solution of test article was prepared in DMA (20 mg/ml) and spiked into each buffer system (20× dilution) to target 1 mg/ml concentration. The samples were vortexed briefly and equilibrated for 24 hr at RT. Samples were then filtered using 0.22u PVDF membrane filters and analyzed for drug concentration using HPLC.

Rat PK (i.v./p.o.) = type: in vivo
Description: Sprague Dawley Rats (n=3) were dosed both intravenously and orally with a solution formulation followed by plasma collection at time points providing sufficient coverage of the absorption, distribution, metabolism and excretion phases of the test article. Test article concentrations at each time point were determined by LC-MS detected bioanalytical analysis. Non-compartmental pharmacokinetic analysis of the intravenous bioanalytical data provided area under the curve, clearance, volume of distribution, and terminal half life parameters while similar analysis of plasma samples from animals dosed orally provided area under the curve, bio-available fraction and oral terminal half life pharmacokinetic parameters.
Rats (n of 3) were dosed both intravenously and orally with the various compounds. Plasma samples were collected at time points chosen to provide sufficient coverage of the absorption, distribution, metabolism and excretion phases of the test compound. LC-MS detected bioanalytical analysis was performed on the plasma samples utilizing a standard curve and quality control samples to provide enough precision and accuracy to determine the concentrations test article for plasma from each time point. Non-compartmental pharmacokinetic analysis of the intravenous bioanalytical data provided area under the curve, clearance, volume of distribution, terminal half life parameters while similar analysis of plasma samples from animals dosed orally provided area under the curve, bio-available fraction and oral terminal half life pharmacokinetic parameters (see FIG. 1).

CCR9 receptor = biological target: T1, CCR9 receptor (Homo sapiens, UniProt P51686); test: Calcium mobilization (Ca FLIPR) assay, antagonist mode vs TECK; type: cell-based; conditions: LipE = pIC50-clogD
T1 sequence (P51686 1-369): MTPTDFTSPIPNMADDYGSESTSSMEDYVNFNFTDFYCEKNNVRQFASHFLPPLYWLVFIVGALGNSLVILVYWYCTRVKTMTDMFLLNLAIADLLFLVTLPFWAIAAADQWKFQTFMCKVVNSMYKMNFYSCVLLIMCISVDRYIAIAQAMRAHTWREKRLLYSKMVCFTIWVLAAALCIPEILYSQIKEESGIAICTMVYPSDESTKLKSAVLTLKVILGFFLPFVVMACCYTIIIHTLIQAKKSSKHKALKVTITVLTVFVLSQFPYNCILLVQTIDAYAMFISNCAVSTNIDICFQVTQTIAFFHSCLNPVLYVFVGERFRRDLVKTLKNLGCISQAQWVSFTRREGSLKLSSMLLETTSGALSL
Description: Calcium Mobilization Assay:
Cells expressing CCR9 receptor (MultiSpan, Hayward, Calif.) were seeded in 384-well plates. Ca^2+ assays were conducted after overnight culture in the plates according to the manufacturer's protocol using Screen Quest™ Fluo-8 no wash kit (AAT Bioquest, Sunnyvale, Calif.). Dye loading buffer was added to the cells and incubated for 45 minutes at 37° C. followed by 15 minutes incubation at room temperature. Compounds in the presence of 0.1% DMSO were applied to the cells during calcium flux measurement. Calcium flux was monitored for 90 seconds with compound application after 10 seconds. For antagonist mode, cells were preincubated with the compound at room temperature for 10 minutes before the application of the control agonist TECK (Preprotech, Rocky Hill, N.J.) at EC80 concentration of 0.01 uM obtained from dose-response curves of control agonist.

[2] = Rat microsome protein binding (equilibrium dialysis); type: in vitro ADME; conditions: rat liver microsomes, 1 mg/mL rat hepatic microsomes, read-out: Rat Microsomal Binding Fu
Description: (§1) Plasma and Microsome Protein Binding:
(§2) Protein binding was measured via high throughput equilibrium dialysis with the HTDialysis device fitted with a 12,000 to 14,000 Da molecular weight cutoff membrane. Rat plasma or 1 mg/mL rat hepatic microsomes spiked with test article were dialyzed vs. phosphate buffer for 6 hours. Aliquots were removed from both sides of the membrane and diluted with equal volumes of the opposite matrix. Following protein precipitation and centrifugation, the resultant matrix matched supernatants were analyzed by LC-MS to compare the plasma or microsome dialysate test article signal to the buffer signal. Test article stability was monitored during the course of the assay.

[3] = Rat plasma protein binding (equilibrium dialysis); type: in vitro ADME; conditions: read-out: Rat Plasma Protein Binding (PPB) Fu
Description: as §1, §2

[4] = In-vitro precipitation time in simulated gastric and intestinal fluids; type: physicochemical; conditions: oral dosing solution
Description: Dosing solutions at 1 mg/mL for rat PK studies were prepared using either a pH+co-solvent approach or pH+cosolvent+surfactant approach. The total amounts of cosolvent and surfactant used in the solution formulations ranged from 5-8% v/v and q.s. with pH 9 phosphate buffer. Solutions were assessed for their potential for in-vivo precipitation using an in-vitro dilution test (1:1, 1:4 and 1:9) in simulated gastric and intestinal fluids.

[5] = Rat liver microsome clearance; type: in vitro ADME; conditions: rat liver microsomes; 2 μM, 1 mg/mL rat hepatic microsomes, NADPH; read-out: Rat Microsome In Vitro CLint
Description: Microsomal In-Vitro Clearance:
The test articles (2 μM) were incubated for one hour in 1 mg/mL rat hepatic microsomes with 2 mM NADPH at 37° C. with aliquots removed at t=0, 15, 30 and 60 minutes. Incubations were terminated at the specified times by protein precipitation, and samples were centrifuged. Resultant supernants were analyzed by LC-MS/MS for the amount of incubated compound remaining, and the half life (t1/2) and intrinsic microsomal clearance rate (CLint) of each compound was calculated.

solubility at 24 h ([1]; pH 4 buffer, pH 4 (Table 6), read-out: Solubility pH 4): 13 µg/mL (≈ 43.9 µM) | solubility at 24 h ([1]; pH 7.4 buffer, pH 7.4 (Table 6), read-out: Solubility pH 7.4): 140 µg/mL (≈ 472 µM) | solubility at 24 h ([1]; pH 9 buffer, pH 9 (Table 6), read-out: Solubility pH 9): 1000 µg/mL (≈ 3370 µM) | Rat In vivo CL as % Hepatic Blood Flow (Rat PK (i.v./p.o.)): 44% | clearance (Rat PK (i.v./p.o.); Sprague Dawley, plasma, iv, read-out: Rat In vivo CL): 24 mL/min/kg | bioavailability (Rat PK (i.v./p.o.); Sprague Dawley, plasma, oral, 6: co-solvent (pH 9), 39, 40, 42: co-solvent + surfactant (pH 9), read-out: % F (p.o.)): 12% | Oral AUC/D (Rat PK (i.v./p.o.); oral, formulation as in Table 6): 0.08 ug · hr/ml/(mg/kg) | LipE (CCR9 receptor): 2.4 | fraction unbound at 6 h [2]: 0.703 | fraction unbound at 6 h [3]: 0.01 | In-vitro Precipitation Time (Visual assessment), SGF ([4]; simulated gastric fluid): SGF: 0 min | In-vitro Precipitation Time (Visual assessment), SIF ([4]; simulated intestinal fluid): SIF: 120 min | CLint scaled at 2 μM [5]: 717 mL/min/kg
SMILES: Cc1nc2ncnn2c(O)c1Cc1ccc(C(C)(C)C)cc1 [Compound 6]
